Tests used:
[1] = test system: NHEK cells; assay: Proliferation of NHEK cells (methylene blue staining); assay type: cell-based, human; details: 4 days
Text: Normal human epidermal keratinocytes from neonatal foreskin (commercialized by Kurabo Industries Ltd., Osaka, Japan, and abbreviated as “NHEK cells”, hereinafter) were suspended in EpiLife medium (commercialized by Invitrogen Corporation, Calif., USA) supplemented with a cell-growth supplement (EDGS: EpiLife Defined Growth Supplement) (EpiLife medium supplemented with EDGS is abbreviated as “EpiLife medium”, hereinafter), and subjected to passage cultures at a confluent density of 60 to 80% under a 5% v/v CO2 condition and at 37° C. The proliferated cells were detached from culture vessels, suspended in HuMedia-KB2 medium (commercialized by Kurabo Industries Ltd., Osaka, Japan) to give a cell density of 7.5×10^3 cells/mL, inoculated to 24-well plates coated with collagen (“Cell matrix Type IV”, a product name of Nitta Gelatin Inc., Osaka, Japan) in a volume of 0.4 mL/well, and cultured for one day under a 5% v/v CO2 condition and at 37° C. […] Then, the resulting cells were washed with distilled water and admixed with 0.33 N hydrochloric acid in a volume of 0.5 mL/well to extract the dye (methylene blue), followed by transferring the resulting extract to 96-well plates in a volume of 0.1 mL/well for measuring the absorbance at wavelengths of 595 nm and 650 nm. The values, obtained by subtracting the absorbance at a wavelength of 650 nm from that of 595 nm, were regarded as indexes of cell growth rates, which were relatively evaluated by regarding the value, as a control, obtained with KB2-HI medium free of ascorbic acid 2-glucoside as 100%.

[2] = test system: glutathione; assay: Production level of glutathione in A431 cells; assay type: cell-based, human; details: 1 mM, 24 h, control = 100%
Procedure: To Dulbecco's MEM medium, containing 10% v/v calf fetal serum and an antibiotic (abbreviated as “D-MEM”, hereinafter), were added ascorbic acid 2-glucoside, a reagent grade specimen commercialized by Hayashibara Co., Ltd., Okayama, Japan, or L-ascorbic acid, a special reagent grade specimen commercialized by Wako Pure Chemical Industries, Ltd., Tokyo, Japan, […]
Continuously-cultivated A431 cells in D-MEM medium were collected, resuspended in D-MEM medium, inoculated to culture plates with 10 cm in diameter (φ) in an amount of 1×10^6 cells/10 mL/plate, and cultured for 24 hours. Thereafter, the culture supernatants were removed by sucking, and the remaining cells were added with any of the test solutions in an amount of 10 mL/plate and cultured for another 24 hours. As a control, cells were added with only D-MEM medium in an amount of 10 mL/plate and cultured for 24 hours. To each plate, which had been removed its culture supernatant, was added ice-chilled Dulbecco's PBS (−) commercialized by Nissui Pharmaceutical Co., Ltd., Tokyo, Japan, to wash cells, which were then collected with a scraper. Glutathione was quantified with “Glutathione Assay Kit”, a commercially available glutathione assay kit commercialized by BioVision, Inc., San Francisco, USA. In this experiment, the control and test solutions were respectively assayed by using three plates respectively, and the data were averaged for obtaining a glutathione production level for each plate. A5% v/v CO2 incubator was used for culturing A431 cells in any case. Relative values of test samples were determined with the proviso that the production levels of reduced glutathione and total glutathione levels in A431 cells that had been cultured with only D-MEM medium were respectively regarded as 100%, and the results are in Table 4.

For `O=C1O[C@H]([C@@H](O)CO)C(O)=C1O[C@H]1O[C@H](CO)[C@@H](O)[C@H](O)[C@H]1O` [ascorbic acid 2-glucoside, 2-O-α-D-glucosyl-L-ascorbic acid], the Cell growth rate ([1]; 100 μM, control without ascorbic acid 2-glucoside = 100%) was 148%, the Cell growth rate ([1]; 300 μM, control = 100%) was 157% and the Cell growth rate ([1]; 900 μM, control = 100%) was 169%. The Total glutathione [2] was 106%.

Source: patent US10111822B2, “External dermal composition for anti-ageing and method for producing the same” (Hayashibara Co., Ltd., priority 2012, dated 2018)
